Source: US20160215348A1, “GENE EXPRESSION BIOMARKERS AND THEIR USE FOR DIAGNOSTIC AND PROGNOSTIC APPLICATION IN PATIENTS POTENTIALLY IN NEED OF HDAC INHIBITOR TREATMENT” (4SC AG, priority 2013, published 2016)

Key:
[1] = tested on: hepatocellular cancer (HCC); assay: SHELTER clinical trial, overall survival (Kaplan-Meier) by baseline ZFP64 expression; format: in vivo, human
Description: Resminostat was explored as monotherapy and in combination with sorafenib. Patients with advanced HCC (BCLC staging B/C) were included in a multi-center, two-arm trial. […] A dose escalation of resminostat (range 200 to 600 mg) combined with Sorafenib (400 or 800 mg) was performed. Arm A investigated the drug combination (resminostat+sorafenib), Arm B the monotherapy of resminostat (600 mg). Primary objective was the progression-free survival rate (PFSR) after 12 weeks (w). Secondary objectives included safety, tolerability, tumor response, PFS, TTP, OS and the analyses of PK and biomarkers (BM), incl. HDAC enzyme inhibition, histone acetylation and gene expressions in peripheral blood. Based on the results and indications seen in the analysis in example 3a, the dCt values of ZFP64 at baseline were treated with the method described here for determining the split between gene expression groups. Data was processed as follows: Gene expression data of the genes of interest was gathered as real time PCR dCt values relative to the expression of housekeeping genes for a specific time point, e.g. at baseline prior to treatment start. […] Said two groups were then compared in Kaplan-Meier analyses for OS, PFS in order to identify a statistically significant difference that separates the patients' probability for OS, PFS.

ZFP64 [2] = assay: Gene expression in HepG2 cancer cells (in vitro); format: cell-based, human; conditions: standardized to 0 h
Description: Hatched columns relate to blood, black columns relate to HepG2 cells, white boxes relate to HT 29 cells. Values are standardized to the value at 0 h.
Samples were obtained and gene expressions were determined with the methods as described herein below. The results are shown in below table 3 and FIGS. 2 and 3
The above values represent a mean value which was determined on the basis of 2 biological replicates, for each of which 3 technical replicates were prepared. […] The level of gene expression determined in peripheral blood samples can be correlated with a certain level of activity of HDAC in the diseased cells, e.g. by applying an appropriate conversion factor or conversion table, which may be determined for each specific disease, and/or patient group.
To determine RNA expression levels of ZFP64 in different cancer cell lines and PBMC, the cell membranes were chemically disrupted with a buffer containing guanidine isothiocycanate, which lyses the cells and supports the binding of RNA to a silica membrane and RNA was extracted via a filter-based spin column.
The High-Capacity cDNA Reverse Transcription Kit (Applied Biosystems) was used for reverse transcription of total RNA into single stranded cDNA with the aid of random hexamer primers according to the manufacturer's instructions. Briefly, for the reaction mix total RNA was mixed with random primers in excess, 4 mM dNTP Mix, 2.5 U/reaction, reverse transcriptase and nuclease free water. The reverse transcription took place in a thermal cycler under the following conditions: 25° C. for 10 min, 37° C. for 120 min, 85° C. for 5 min, followed by 4° C. for cooling down the reaction. The reverse transcription can be done in principle as well with other reverse transcriptases, primers and temperature protocols. Whenever possible, 250 ng total RNA were reverse transcribed if not available, lower amounts were used.
Custom TaqMan® Arrays (Applied Biosystems) in Format 16 were designed for the gene expression analysis of biomarkers of the present invention and housekeeping genes as outlined in table 4. These arrays allow for qPCR analysis of 8 samples per card. Of course, all reactions can be done as well by conventional qPCR analysis with specific primers.

[3] = Dose escalation 100-800 mg in cancer patients, dose-limiting toxicity; format: in vivo, human; conditions: highest dose group (800 mg); one patient within the first 3 patients
Description: HDAC enzyme activity, H4 Histone acetylation and gene expression of a group of genes were measured in the dose groups 100 mg, 200 mg, 400 mg, 600 mg and 800 mg. Each group consisted of 3 patients with different types of tumors. The highest dose group consisted of 6 patients due to a dose-limiting toxicity [DLT] […] The treatment cycles were as detailed for the SAPHIRE, SHELTER and SHORE clinical trials described herein below.

ZFP64 [4] = assay: Nuclear protein extraction and Western blot, HepG2 cells; format: cell-based, human; conditions: 5 μM, 24 h, vs 0.1% DMSO
Description: After isolating nuclear fractions, ZFP64 protein levels were detected by Western Blot analysis. Histone H3 serves as nuclear loading control.
4 h upon seeding, HepG2 cells were treated with either 0.1% DMSO or 5 μM resminostat.
24 h upon resminostat treatment, cells were washed once with PBS before scraping and harvesting in cold PBS and transferring the cells into pre-chilled 15 ml falcon tubes. […]
From each nuclear sample 4.4 μg protein (measured via BCA protein assay) were added to the same amount of Tricine buffer (supplemented with B-Mercaptoethanol), heated at 95° C. for 5 min and then placed on ice. […]
The next day, after washing four times with Washing Buffer, membranes were incubated for 1 h with the corresponding horseradish peroxidase-conjugated anti-rabbit IgG secondary antibody at a dilution of 1/50.000 and anti-Biotin at a dilution of 1/1.000 (diluted in 10 ml 1/10 diluted SuperBlock T20 Blocking Buffer). After washing four times with Washing Buffer, HRP signals were detected using enhanced chemoluminescence and exposed to X-ray films. Subsequently, the films were scanned using the Gel Doc 2000 and the corresponding signals were quantified with the “Quantity One” Software (BioRad).

[5] = SHELTER patients on resminostat 600 mg or resminostat 600 mg + sorafenib 400 mg, pooled, split at 75th percentile
[6] = SHELTER, single arm, resminostat 600 mg (combination: + sorafenib 400 mg), split at 75th percentile
[7] = all available SHELTER patients (monotherapy and sorafenib combination arms pooled), split 60% high/40% low

CN(C)Cc1ccc(S(=O)(=O)n2ccc(/C=C/C(=O)NO)c2)cc1 [resminostat, (E)-3-(1-(4-((dimethylamino)methyl)phenylsulfonyl)-1H-pyrrol-3-yl)-N-hydroxyacrylamide]
median OS (high ZFP64 expression) [1, 5]: 9.4 months | median OS (low ZFP64 expression) [1, 5]: 5.1 months | overall median OS for the two groups ([1]; SHELTER, single arm, resminostat 600 mg (combination: + sorafenib 400 mg)): 3.7 months | median OS for high ZFP64 expression [1, 6]: 7.0 months | median OS for low ZFP64 expression [1, 6]: 0.9 months | median OS (high ZFP64 expression) [1, 7]: 8 months | median OS (low ZFP64 expression) [1, 7]: 3.9 months | Expression level, ZFP64 (ZFP64 [2]; 2 h): 0.46 | Expression level, ZFP64 (ZFP64 [2]; 5 h): 0.19 | Dose-limiting toxicity [DLT] [3]: fatigue and nausea grade 3 | ZFP64 nuclear protein levels (Western Blot) (ZFP64 [4]): diminished
